Where two headings read alike, the source gives them in different places.
Legend:
[1] = Plasma pharmacokinetics (non-compartmental analysis) in open-label, fixed-sequence, 2-way crossover study in healthy participants; conditions: for AUClast, Geometric mean / AUClast, Mean / AUClast, Median / Clast, Geometric mean / Clast, Mean / Clast, Median / Cmax, Geometric mean / Cmax, Mean / Cmax, Median / tlag, Median / tmax, Median / AUC(0-t) / Cmax: fasted, plasma; for AUC(0-t) / Cmax: po; for AUC(0-t): AUClast
Experimental: (§1) This study was an open‐label, fixed sequence, 2‐way crossover study in 13 healthy participants. On Day 1, 25 mg amitriptyline and 50 mg tramadol were orally administered concurrently, followed by a wash‐out period of at least 7 days. On Day 8, 30 mg of oral CBD oil was administered 1 h prior to amitriptyline and tramadol. On Days 1 and 8, participants presented to the clinical research unit in the morning and were discharged in the evening, briefly returning in the morning of Days 2 and 9 for pharmacokinetic sampling.
The cannabidiol formulation used in this study was Clinican®, an almond oil‐based formulation containing 10% cannabidiol and manufactured by Clinical Cannabis Care (Breukelen, the Netherlands) and administered orally with 240 mL of water following an overnight fast. Single doses of 30 mg CBD were administered. […] Furthermore, we estimated that the 30 mg CBD dose is at the upper end of the range of CBD intake of patients who use CBD‐rich varieties of medicinal cannabis (or formulations containing THC and CBD, like Sativex®) for treatment of neuropathic pain symptoms,[23] and as well as an approximately median dose for OTC CBD users. Cannabidiol was administered one hour prior to amitriptyline and tramadol (during visit 2 only) to offset the slower absorption expected from an oil‐based cannabinoid formulation, compared to the victim drugs.
Generic oral formulations of tramadol (50 mg tramadol hydrochloride capsule) and amitriptyline (25 mg hydrochloride tablet) were used in this study. These doses were at the low end of the therapeutic range, allowing for a safety margin for possible increases in plasma concentrations when co‐administered with CBD. Tramadol and amitriptyline were not known to induce or inhibit CYP‐enzymes in general, and no specific pharmacokinetic interactions between the two victim drugs were known to the investigators. […] However, this risk was deemed clinically irrelevant when low, single doses were administered to healthy volunteers. Based on these consideration regarding pharmacokinetics and safety, the two victim drugs were administered together in a cocktail design.
Sampling for pharmacokinetics was performed pre‐dose and at 1, 2, 3, 4, 5, 6, 8, 12 and 24 h following the administration of amitriptyline and tramadol. Approximately 4 mL blood was collected via an i.v. catheter placed in an antecubital vein in the arm in polypropylene K2EDTA tubes. Following collection, samples were immediately cooled on ice. Within 30 min of collection, plasma was separated by centrifugation at approximately 2000 g for 10 min and promptly transferred into amber glass vials and stored at […]. The samples were analysed by the iC42 Laboratory (Department of Anesthesiology, University of Colorado, Aurora, Colorado, USA). CBD and CBD metabolites were analysed using a validated assay that was previously published (CBD metabolite concentrations not reported in this manuscript).[33] Concentrations of amitriptyline, nortriptyline, tramadol and O‐desmethyltramadol were determined using a validated assay that was based on a previously published high‐performance liquid chromatography tandem mass spectrometry (HPLC‐MS/MS) method.[34] Details regarding the bioanalytical assays used to measure CBD, amitriptyline, nortriptyline, tramadol and O‐desmethyltramadol are located in the Supplementary Materials section.
R 3.6.1 for Windows (R Foundation for Statistical Computing/R development Core Team, Vienna, Austria, 2019), PKNCA package version 0.9.5, was used to calculate pharmacokinetic parameters. PK parameter calculations were based on actual sampling time.

[2] = clinical
Experimental: as §1
To establish whether significant treatment effects could be detected, the PK parameters were compared with a mixed effects model analysis of variance (ANOVA) with treatment as a fixed factor and participants as a random factor on log‐transformed data. The general treatment effect and specific contrasts were reported with the estimated difference and the 95% confidence interval, the least square mean estimates and the p‐value. All calculations were performed using SAS for Windows V9.4 (SAS Institute, Inc., Cary, NC, USA).

[3] = cited from earlier work; for mean (SD) AUC: previous trial
[4] = system: CYP2D6; conditions: cited from earlier work
[5] = system: CYP3A4 and CYP2B6; conditions: cited from earlier work
[6] = cited from earlier work
[7] = Visit 1 (Day 1), no CBD, based on AUClast, corrected for molecular weight ratio, N=13
[8] = Visit 1 (Day 1): 25 mg amitriptyline + 50 mg tramadol oral, no CBD, N=13
[9] = Visit 2 (Day 8), 30 mg CBD 1 h prior, based on AUClast, corrected for molecular weight ratio, N=12
[10] = Visit 2 (Day 8): 30 mg CBD oral 1 h prior to 25 mg amitriptyline + 50 mg tramadol, N=12
[11] = Visit 1: without CBD, mixed effects model on log-transformed data
[12] = Visit 2 (with 30 mg CBD) vs Visit 1 (without CBD)
[13] = Visit 2: with 30 mg CBD, mixed effects model on log-transformed data
[14] = human, in vivo, Geometric mean, Visit 1 (Day 1): 25 mg amitriptyline + 50 mg tramadol oral, no CBD, N=13
[15] = human, in vivo, Geometric mean, Visit 2 (Day 8): 30 mg CBD oral 1 h prior to 25 mg amitriptyline + 50 mg tramadol, N=12
[16] = human, in vivo, Mean, Visit 1 (Day 1): 25 mg amitriptyline + 50 mg tramadol oral, no CBD, N=13
[17] = human, in vivo, Mean, Visit 2 (Day 8): 30 mg CBD oral 1 h prior to 25 mg amitriptyline + 50 mg tramadol, N=12
[18] = human, in vivo, Median, Visit 1 (Day 1): 25 mg amitriptyline + 50 mg tramadol oral, no CBD, N=13
[19] = human, in vivo, Median, Visit 2 (Day 8): 30 mg CBD oral 1 h prior to 25 mg amitriptyline + 50 mg tramadol, N=12

With `CNCCC=C1c2ccccc2CCc2ccccc21` [Nortriptyline] the “MPR (metabolite to parent ratio), Geometric mean” value ([1]; human, in vivo) was 0.57, the “MPR (metabolite to parent ratio), Mean” value ([1]; human, in vivo) was 0.62 and the “MPR (metabolite to parent ratio), Median” value ([1]; human, in vivo) was 0.60. The AUC(0-t) ([2]; human, in vivo) was 75.3 ng·h/mL, the “Clast, back transformed LSM Visit 1” value ([2]; human, in vivo) was 3.30 and the Cmax ([2]; human, in vivo) was 4.36 ng/mL. For the same compound, the AUC(0-t) ([2]; human, in vivo, 30 mg) was 79.5 ng·h/mL, the Cmax ([2]; human, in vivo, 30 mg) was 4.51 ng/mL and the “terminal half‐life” value [3] was ~ 26 h.

In the case of `CN(C)CCC=C1c2ccccc2CCc2ccccc21` [Amitriptyline], the baseline amitriptyline concentration ([1]; human, in vivo) is reported as 0.85 ng/mL, the AUC(0-t) ([2]; human, in vivo) is reported as 139 ng·h/mL and the “Clast, back transformed LSM Visit 1” value ([2]; human, in vivo) is reported as 3.40. The Cmax ([2]; human, in vivo) was 12.3 ng/mL, the AUC(0-t) ([2]; human, in vivo, 30 mg) was 156 ng·h/mL and the Cmax ([2]; human, in vivo, 30 mg) was 14.5 ng/mL. The “terminal half‐life” value [3] was ~ 25 h and the “mean (SD) AUC” value ([3]; 28 participants dosed with 10 mg of amitriptyline) was 156 (87.8) ng*h/mL.

For `CN(C)C[C@H]1CCCC[C@]1(O)c1cccc(O)c1` [O‐desmethyltramadol], the “MPR (metabolite to parent ratio), Geometric mean” value [1, 7] was 0.37, the “MPR (metabolite to parent ratio), Mean” value [1, 7] was 0.40 and the “MPR (metabolite to parent ratio), Median” value [1, 7] was 0.33. For the same compound, the “AUClast, Geometric mean” value [1, 8] was 400.4 ng·h/mL, the “AUClast, Mean” value [1, 8] was 412.0 ng·h/mL and the “AUClast, Median” value [1, 8] was 388.6 ng·h/mL. For the same compound, the “Clast, Geometric mean” value [1, 8] was 4.4 ng/mL, the “Clast, Mean” value [1, 8] was 4.8 ng/mL and the “Clast, Median” value [1, 8] was 4.1 ng/mL. The “Cmax, Geometric mean” value [1, 8] was 35.0 ng/mL, the “Cmax, Mean” value [1, 8] was 36.7 ng/mL and the “Cmax, Median” value [1, 8] was 31.1 ng/mL. For the same compound, the “tlag, Median” value [1, 8] was 0.0 h, the “tmax, Median” value [1, 8] was 3.0 h and the “MPR (metabolite to parent ratio), Geometric mean” value [1, 9] was 0.37. The “MPR (metabolite to parent ratio), Mean” value [1, 9] was 0.39, the “MPR (metabolite to parent ratio), Median” value [1, 9] was 0.32 and the “AUClast, Geometric mean” value [1, 10] was 399.5 ng·h/mL. For the same compound, the “AUClast, Mean” value [1, 10] was 411.1 ng·h/mL, the “AUClast, Median” value [1, 10] was 396.1 ng·h/mL and the “Clast, Geometric mean” value [1, 10] was 4.0 ng/mL. The “Clast, Mean” value [1, 10] was 4.4 ng/mL, the “Clast, Median” value [1, 10] was 3.9 ng/mL and the “Cmax, Geometric mean” value [1, 10] was 37.6 ng/mL. The “Cmax, Mean” value [1, 10] was 39.5 ng/mL, the “Cmax, Median” value [1, 10] was 33.6 ng/mL and the “tlag, Median” value [1, 10] was 0.0 h. The “tmax, Median” value [1, 10] was 2.5 h, the “MPR, back transformed LSM Visit 1” value ([2]; Visit 1: without CBD, metabolite to parent ratio) was 0.37 and the “AUClast, back transformed LSM Visit 1” value [2, 11] was 400.41. The “Clast, back transformed LSM Visit 1” value [2, 11] was 4.43, the “Cmax, back transformed LSM Visit 1” value ([2]; Visit 1: without CBD, mixed effects model on log-transformed data, in ng/mL) was 34.99 and the “AUClast, Ratio of LSMs” value [2, 12] was 0.99. The “Clast, Ratio of LSMs” value [2, 12] was 0.91, the “Cmax, Ratio of LSMs” value [2, 12] was 1.05 and the “MPR, Ratio of LSMs” value [2, 12] was 0.95. The “MPR, back transformed LSM Visit 2” value ([2]; Visit 2: with 30 mg CBD, metabolite to parent ratio) was 0.36, the “AUClast, back transformed LSM Visit 2” value [2, 13] was 396.86 and the “Clast, back transformed LSM Visit 2” value [2, 13] was 4.04. For the same compound, the “Cmax, back transformed LSM Visit 2” value ([2]; Visit 2: with 30 mg CBD, mixed effects model on log-transformed data, in ng/mL) was 36.84, the “terminal half‐life” value [3] was ~ 7 h and the “mean (SD) AUC” value ([3]; 25 participants dosed with 100 mg tramadol) was 669 (181) ng*h/mL.

In the case of `COc1cccc(C2(O)CCCCC2CN(C)C)c1` (stereo not drawn) [Tramadol], the “Clast, Geometric mean” value [1, 8] is reported as 7.4 ng/mL, the “Clast, Mean” value [1, 8] is reported as 8.9 ng/mL and the “Clast, Median” value [1, 8] is reported as 8.4 ng/mL. The “tlag, Median” value [1, 8] was 0.0 h, the “Clast, Geometric mean” value [1, 10] was 6.8 ng/mL and the “Clast, Mean” value [1, 10] was 8.7 ng/mL. The “Clast, Median” value [1, 10] was 8.0 ng/mL, the “tlag, Median” value [1, 10] was 0.0 h and the AUC(0-t) [1, 14] was 1130 ng·h/mL. The AUC(0-t) [1, 15] was 1150 ng·h/mL, the AUC(0-t) [1, 16] was 1170 ng·h/mL and the AUC(0-t) [1, 17] was 1210 ng·h/mL. It also gave an AUC(0-t) [1, 18] of 1240 ng·h/mL, an AUC(0-t) [1, 19] of 1160 ng·h/mL and a Cmax [1, 14] of 137 ng/mL. It also gave a Cmax [1, 15] of 150 ng/mL, a Cmax [1, 16] of 141 ng/mL and a Cmax [1, 17] of 153 ng/mL. The Cmax [1, 18] was 135 ng/mL, the Cmax [1, 19] was 155 ng/mL and the “Clast, back transformed LSM Visit 1” value [2, 11] was 7.41. For the same compound, the “AUClast, Ratio of LSMs” value [2, 12] was 1.04, the “Clast, Ratio of LSMs” value [2, 12] was 0.97 and the “Cmax, Ratio of LSMs” value [2, 12] was 1.10. For the same compound, the “Clast, back transformed LSM Visit 2” value [2, 13] was 7.16, the AUC(0-t) ([2]; human, in vivo) was 1130 ng·h/mL and the Cmax ([2]; human, in vivo) was 137 ng/mL. The AUC(0-t) ([2]; human, in vivo, 30 mg) was 1180 ng·h/mL, the Cmax ([2]; human, in vivo, 30 mg) was 151 ng/mL and the “terminal half‐life” value [3] was 5 to 6 h. The “proportion of tramadol converted into O‐desmethyltramadol (O‐DSMT) by CYP2D6” value [4] was “approximately 80%” and the “proportion of tramadol converted into N‐desmethyltramadol (N‐DSMT) by CYP3A4 and CYP2B6” value [5] was “approximately 20%”.

For `C=C(C)[C@@H]1CCC(C)=C[C@H]1c1c(O)cc(CCCCC)cc1O` [Cannabidiol], the “Clast, Geometric mean” value [1, 10] was 1.0 ng/mL, the “Clast, Mean” value [1, 10] was 1.1 ng/mL and the “Clast, Median” value [1, 10] was 1.1 ng/mL. The “tlag, Median” value [1, 10] was 0.0 h, the “tmax, Median” value [1, 10] was 2.0 h and the AUC(0-t) [1, 15] was 5.3 ng·h/mL. The AUC(0-t) [1, 17] was 6.9 ng·h/mL, the AUC(0-t) [1, 19] was 6.2 ng·h/mL and the Cmax [1, 15] was 2.9 ng/mL. The Cmax [1, 17] was 3.5 ng/mL, the Cmax [1, 19] was 3 ng/mL and the “terminal half‐life” value [3] was ~ 60 h. The “mean±SD Cmax” value ([6]; previous study, 30 mg CBD tablet formulation after semi-standardized light breakfast) was 5.6 ± 4.6 ng/mL.

In the case of 11‐OH‐THC, the “increase of mean AUC by 30 mg CBD” value ([6]; 30 mg CBD administered 30 min before THC) is given as 71%.

— paper PMC13206195, “Low‐dose cannabidiol increases plasma concentrations of amitriptyline: A clinical drug–drug interaction study” (British Journal of Clinical Pharmacology, 2025)
